Experimental data: patent publication US4778785A, “Pharmaceutical composition for retarding and reducing cachexia” (Kaken Pharmaceutical Co., Ltd., priority 1985, dated 1988)
Like-named read-outs stand apart in the source and are kept apart here.

Experiments:
rats = assay: acute toxicity (LD50) by subcutaneous injection of rats; conditions: acute toxicity, rats, subcutaneous injection
[1] = finding of effectiveness in retarding and reducing cachexia; format: in vivo; conditions: benzaldehyde and/or 4,6-O-benzylidene-D-glucose
[2] = Clinical Example 1: treatment of cachexia patient with 4,6-O-benzylidene-D-glucose; format: in vivo, human; conditions: 1,200 mg i.v. once a day; for body weight: before: 29 kg
Description: Patient
Diagnosis: Cancer in right ovary, Cachexia caused by metastasis of cancer to peritoneum and liver
Although the adbomen of the patient was opened by an abdominal operation, it was impossible to remove the diseased portions and thus the abdomen was closed without extracting the affected portions. The patient could eat very little and thus was supplied with nutritive substances by instillations every day. The body weight of the patient decreased to 29 kg, and they were confined to bed.

[3] = Japanese Patent Laid-Open 108027/1977 and 70428/1979; cited from earlier work
in vivo = conditions: rat, sc
[4] = prior chemotherapy of the patient of Clinical Example 1, adverse reactions; conditions: chemotherapy with mitomycin, 5-fluorouracil and cytarabine together, stopped after three weeks
Description: (§1) Chemotherapy was tried to administering mitomycin, 5-fluorouracil and cytarabine. […] For these reasons, chemotherapy was stopped after three weeks.

[5] = human, in vivo
Description: as §1

[6] = acute toxicity (LD50) by subcutaneous injection of rats; conditions: rat, in vivo, sc
[7] = Clinical Example 3: treatment of cachexia patient with benzaldehyde; format: in vivo, human; conditions: for Precipitation of Blood: before dosage 78; for Glutamic Acid Pyruvic Acid Transaminase (GPT): before dosage 98; for Glutamic Acid Oxaloacetic Acid Transaminase (GOT): before dosage 120; for α-fetoprotein (AFP): before dosage 20,000
Description: Patient
Diagnosis: Symptoms of cachexia due to lung cancer (the type of cancerous tissue not being specified)
Through CT scan and echo examinations, a total of four tumors were observed, one having the dimensions of 7 cm×7 cm and each of the other three metastasized tumors having a diameter of about 1 cm. Severe symptoms due to cachexia were found.
First Day: The symptoms due to cachexia were growing worse.

[8] = 25 mg tablets, 5 tablets 4 times a day, three months

OC1O[C@@H]2COC(c3ccccc3)O[C@H]2[C@H](O)[C@H]1O (stereo partly drawn) [4,6-O-Benzylidene-D-glucose, 4,6-O-benzylidene-D-glucose]
toxicity (rats): extremely low toxicities
effect on cachexia [1]: effective in retarding and reducing cachexia
nausea ([2]; eighth day): Nausea disappeared
food intake ([2]; eighth day, before: could eat very little): the patient could take meals
body weight ([2]; eighty-fifth day): 35 kg
cancer in other portions ([2]; fifty-sixth day): No change was observed
cancer of the liver (left) ([2]; fifty-sixth day): slightly reduced
capability of work ([2]; fifty-sixth day): capable of doing light work
symptoms of cachexia ([2]; fifty-sixth day): disappeared completely
body weight ([2]; fifty-sixth day): 31 kg
mobility ([2]; nineteenth day, before: confined to bed): The patient could sit up in bed
cachexia symptoms ([2]; thirtieth day): cachexia symptoms were alleviated
mobility ([2]; thirtieth day): the patient could walk
dimensions of the tumor ([2]; thirtieth day, CT scan): the dimensions of the tumor had not been reduced
carcinostatic function [3]: exhibit carcinostatic functions
LD50 (in vivo): 4000 mg/kg

O=c1[nH]cc(F)c(=O)[nH]1 [5-fluorouracil]
cachexia under chemotherapy [4]: the cachexia grew worse and worse
adverse reactions [5]: intensive adverse reactions, such as anorexia, nausea and Leukopenia

O=Cc1ccccc1 [Benzaldehyde]
LD50 [6]: 5000 mg/kg
toxicity (rats): extremely low toxicities
effect on cachexia [1]: effective in retarding and reducing cachexia
carcinostatic function [3]: exhibit carcinostatic functions
appetite ([7]; 25 mg benzaldehyde tablets, 5 tablets 4 times a day, one month): the patient recovered their appetite
values of AFP, GOT and GPT ([7]; 25 mg tablets, 5 tablets 4 times a day, monthly): lowered favorably every month unitl they reached normal levels
body weight [7, 8]: began to increase
symptoms due to cachexia [7, 8]: Almost all of the symptoms due to cachexia disappeared
body weight ([7]; one month dosage, before dosage 46): 46 kg
Precipitation of Blood ([7]; one month dosage): 60
Glutamic Acid Pyruvic Acid Transaminase (GPT) ([7]; one month dosage): 70
Glutamic Acid Oxaloacetic Acid Transaminase (GOT) ([7]; one month dosage): 87
α-fetoprotein (AFP) ([7]; one month dosage): 15,000 ng/ml
body weight ([7]; three month dosage, before dosage 46): 47 kg
Precipitation of Blood ([7]; three month dosage): 40
Glutamic Acid Pyruvic Acid Transaminase (GPT) ([7]; three month dosage): 35
Glutamic Acid Oxaloacetic Acid Transaminase (GOT) ([7]; three month dosage): 38
α-fetoprotein (AFP) ([7]; three month dosage): 2,200 ng/ml
body weight ([7]; two month dosage, before dosage 46): 46 kg
Precipitation of Blood ([7]; two month dosage): 48
Glutamic Acid Pyruvic Acid Transaminase (GPT) ([7]; two month dosage): 40
Glutamic Acid Oxaloacetic Acid Transaminase (GOT) ([7]; two month dosage): 72
α-fetoprotein (AFP) ([7]; two month dosage): 7,700 ng/ml

Nc1ccn([C@@H]2O[C@H](CO)[C@@H](O)[C@@H]2O)c(=O)n1 [cytarabine]
adverse reactions [4]: intensive adverse reactions, such as anorexia, nausea and Leukopenia
cachexia under chemotherapy [4]: the cachexia grew worse and worse

CO[C@@]12[C@H](COC(N)=O)C3=C(C(=O)C(C)=C(N)C3=O)N1C[C@@H]1N[C@@H]12 [mitomycin]
adverse reactions [4]: intensive adverse reactions, such as anorexia, nausea and Leukopenia
cachexia under chemotherapy [4]: the cachexia grew worse and worse
